# Laboratory results as given in patent publication US20160243176A1, “EXTRACTS FROM PLANTS OF THE MORINGACEAE FAMILY AND METHODS OF MAKING” (RUTGERS, THE STATE UNIVERSITY OF NEW JERSEY, priority 2013, published 2016).
# Columns and labels:
# IL-1β = test: LPS-induced IL-1β gene expression in RAW 264.7 macrophages; assay type: cell-based; conditions: 1 and 5 μM; RAW 264.7, LPS
# Description: (§1) All reagents were supplied from Sigma-Aldrich Co. (St. Louis, Mo.) unless otherwise noted. RAW 264.7 macrophages (ATCC TIB-71) were maintained in Dulbecco's modified Eagle's medium (Caisson, North Logan, Utah) supplemented with 100 U/mL penicillin, 100 μg/mL streptomycin, and 10% fetal bovine serum. Cells were incubated at 37° C. in a 5% CO2 humidified atmosphere and subcultured by cell scraping. For experiments, RAW cells were plated at a density of 4×10^5 cells/mL in 24-well plates. Cells were incubated overnight (18 h), washed with warm 37° C. PBS, and medium was replaced fresh DMEM medium. […] Lipopolysaccharide (1 μg/mL) was added after 2 h incubation with treatments to elicit inflammatory responses. Cells were treated in duplicate or triplicate. After an additional 6 h incubation period, media were collected and cells were washed with PBS prior to collection in TRIzol® Reagent (Ambion, Life Technologies). […]
# (§2) Total RNA was extracted from cells according to manufacturer's specifications. […] RNA integrity was evaluated by running about 1 μg of RNA on a 1% agarose gel. […]
# (§3) Quantitative PCR amplifications were performed on an ABI 7300 Real-Time PCR System (Applied Biosystems) with the following thermal cycler profile: 2 minutes, 50° C.; 10 minutes, 95° C.; 15 seconds, 95° C.; 1 minute, 60° C. for the dissociation stage; 15 seconds, 95° C.; 1 minutes, 60° C.; and 15 seconds, 95° C. […]
# [1] = rotoevaporation 1 hour at 50° C., compared to freeze-dried samples
# Text: Drying the 1:5 ratio preparations can be achieved by rotoevaporation, followed by freeze-drying or spray drying. […] Further concentration of MICs and removal of sugars from the extract can also be performed with solid phase-extraction (SPE).
# [2] = Compound stability of MICs in moringa extract stored at 37° C.; assay type: physicochemical; conditions: 37° C. for 30 days, compared to day 0
# iNOS = test: LPS-induced iNOS gene expression in RAW 264.7 macrophages; assay type: cell-based; conditions: 1 and 5 μM; RAW 264.7, LPS
# Description: as §1, §2, §3
# NO formation = conditions: Cheenpracha et al., 2010; read-out: NO inhibition IC50; cited from earlier work
# TNF-α [3] = test: LPS-induced TNF-α gene expression in RAW 264.7 macrophages; assay type: cell-based; conditions: any of the concentrations tested; RAW 264.7, LPS
# Description: as §1, §2, §3
# H4IIE rat hepatoma cells = test: In vitro gluconeogenesis: glucose production; assay type: cell-based; conditions: HII4E liver cells; for activity on glucose production relative to SF: same concentrations; for IC50: range of 5 concentrations
# Description: H4IIE rat hepatoma cells (CRL-1548, American Type Culture Collection, Manassas, Va.) were assayed for glucose production as previously described (21). Cell viability was measured by the 3-(4,5-Dimethyl-2-thiazolyl)-2,5-diphenyltetrazolium bromide (MTT; TCI, Portland, Oreg.) assay (22). RNA extraction, cDNA synthesis and qPCR for gene expression of PEPCK and G6P were performed as described above.
# TNF-α [4] = test: TNF-α secretion analysis (ELISA) in RAW 264.7 macrophages; assay type: cell-based, Mouse; conditions: 5 μM
# Description: (§4) All reagents were supplied from Sigma-Aldrich Co. (St. Louis, Mo.) unless otherwise noted. RAW 264.7 macrophages (ATCC TIB-71) were maintained in Dulbecco's modified Eagle's medium (Caisson, North Logan, Utah) supplemented with 100 U/mL penicillin, 100 μg/mL streptomycin, and 10% fetal bovine serum. Cells were incubated at 37° C. in a 5% CO2 humidified atmosphere and subcultured by cell scraping. For experiments, RAW cells were plated at a density of 4×10^5 cells/mL in 24-well plates. Cells were incubated overnight (18 h), washed with warm 37° C. PBS, and medium was replaced fresh DMEM medium. […] Lipopolysaccharide (1 μg/mL) was added after 2 h incubation with treatments to elicit inflammatory responses. Cells were treated in duplicate or triplicate. After an additional 6 h incubation period, media were collected and cells were washed with PBS prior to collection in TRIzol® Reagent (Ambion, Life Technologies). Samples were stored at −80° C. prior to processing.
# After treatments, 1 mL of media was collected and immediately centrifuged at 13,500 g at 4° C. for 10 minutes. The supernatant was preserved at −80° C. until further processing with the BD OptEIATM Mouse TNF ELISA kit (BD Bioscience, San Jose, Calif.) following the manufacturer's protocol. […] TNF-α levels were quantified using a reference standard curve provided with the kit. Absorbance was read at 450 nm and corrected at 570 nm.
# IL-6 = test: LPS-induced IL-6 gene expression in RAW 264.7 macrophages; assay type: cell-based; conditions: 5 μM; RAW 264.7, LPS
# Description: as §1, §2, §3
# Nitric oxide (NO) = test: Nitric oxide production analysis (Griess) in RAW 264.7 macrophages; assay type: cell-based; conditions: 5 μM
# Description: as §4
# After treatments, 1 mL of media was collected and assayed in duplicate following the Griess Reagent System provided by Promega (Promega Corporation; Madison, Wis.). The nitrite standard (0.1 M sodium nitrite) reference curve was built performing a serial dilution (0 to 100 μM). Absorbance was read at 540 nm.
# RAW 264.7 macrophages = test: MTT-based cell viability assay; conditions: concentrations tested in anti-inflammatory assays
# Description: The effect of the treatments on cell viability was measured using MTT [3-(4,5-dimethyl-2-thiazolyl)-2,5-diphenyltetrazolium bromide] (TCI, Portland, Oreg.) (Mosmann, 1983). MTT (5 mg/mL) was dissolved in PBS (Cayman Chemical, Ann Arbor, Mich.), filtered through a 0.22 μm membrane and added to treated cells during the last 3-4 hours of treatment. Media were carefully aspirated and cells were dissolved in DMSO. The absorbance was read at 570 nm.
# [5] = after 6 days at 37° C.; Franklin et al., 2013; cited from earlier work
IC50 (H4IIE rat hepatoma cells; Rattus norvegicus),Structure (SMILES),mRNA expression of IL-1β (IL-1β),loss of MIC under rotoevaporation conditions [1],degradation of MIC in moringa extract [2],mRNA expression of iNOS (iNOS),IC50 (NO formation),TNF-α gene expression (TNF-α [3]),activity on glucose production relative to SF (H4IIE rat hepatoma cells),reduction of TNF-α production (TNF-α [4]),IL-6 gene expression (IL-6),NO formation (Nitric oxide (NO)),cytotoxicity (MTT cell viability) (RAW 264.7 macrophages),IC50 (H4IIE rat hepatoma cells),degradation of SF [5]
–,"C[C@@H]1O[C@@H](Oc2ccc(CN=C=S)cc2)[C@H](O)[C@H](O)[C@H]1O [MIC-1, 4-[(α-L-rhamnosyloxy)benzyl] isothiocyanate]",significant reduction,No significant loss,approximately 80%,significant reduction,14.4 µM,no reduction,superior activity to SF,20%,decrease IL-6 gene expression significantly,inhibited NO formation,no signs of cytotoxicity,–,–
–,"CC(=O)O[C@@H]1[C@@H](O)[C@@H](O)[C@H](Oc2ccc(CN=C=S)cc2)O[C@H]1C [MIC-4, 4-[(4′-O-acetyl-α-L-rhamnosyloxy)benzyl] isothiocyanate]",significant reduction,No significant loss,~20%,significant reduction,2.71 µM,no reduction,superior activity to SF,27%,–,inhibited NO formation,no signs of cytotoxicity,7 µM,–
–,"C[S+]([O-])CCCCN=C=S (stereo not drawn) [SF, sulforaphane]",–,–,–,–,–,–,–,–,–,–,–,–,75%
800 µM,"CN(C)C(=N)N=C(N)N [metformin, reference compound]",–,–,–,–,–,–,–,–,–,–,–,–,–
